Drawing on BindingDB's records for patent US11718613 (University of Michigan, 2023), this text covers IC50 for one molecule.

This assay has as its target Induced myeloid leukemia cell differentiation protein Mcl-1 (Homo sapiens, UniProt Q07820). As to the kind of experiment: Bcl-2 and Bcl-xL Inhibition Assay.

A word on the IC50: it is the concentration at which inhibition is half-maximal. The low end stands for greater potency, the high end for weaker potency.

Chain of Induced myeloid leukemia cell differentiation protein Mcl-1 (Q07820 whole entry): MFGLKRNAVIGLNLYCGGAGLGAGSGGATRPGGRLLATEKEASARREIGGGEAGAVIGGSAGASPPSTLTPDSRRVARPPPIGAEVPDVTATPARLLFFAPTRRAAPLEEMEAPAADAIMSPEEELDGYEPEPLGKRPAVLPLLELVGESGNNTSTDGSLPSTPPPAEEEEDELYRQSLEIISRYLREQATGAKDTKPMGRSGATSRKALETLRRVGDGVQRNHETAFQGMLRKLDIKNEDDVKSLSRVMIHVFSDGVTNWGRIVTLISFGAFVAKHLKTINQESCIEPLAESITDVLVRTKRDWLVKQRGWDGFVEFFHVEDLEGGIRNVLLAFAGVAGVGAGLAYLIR
Description: Fluorescence polarization values were measured using the Infinite M-1000 plate reader (Tecan U.S., Research Triangle Park, N.C.) in Microfluor 1 96-well, black, round-bottom plates (Thermo Scientific). […] Plates were mixed and incubated at room temperature for 1 hour with gentle shaking to assure equilibrium. […] Equilibrium dissociation constants (Kd) were then calculated by fitting the sigmoidal dose-dependent FP increases as a function of protein concentrations using Graphpad Prism 5.0 software (Graphpad Software, San Diego, Calif.).

Consider `O=C(NS(=O)(=O)c1ccc(NC[C@@H]2COCCO2)c([N+](=O)[O-])c1)c1ccc(N2CCN(CC3=C(c4ccc(Cl)cc4)CC4(CCC4)CC3)CC2)cc1Oc1cnc2[nH]ccc2c1` [US11718613, Compound 13], for which the IC50 was greater than 5 µM.
